Patent publication EP1263429B1, “ANTIVIRAL THERAPY” (Universiteit Utrecht, priority 2000, dated 2001)
Read-outs that look alike come from different tables or passages of the source.

Tests used:
HIV-1Ba-L [1] = experiment: HIV-1 replication in acutely infected PBMC, p24-core antigen ELISA; type: cell-based; conditions: for inhibition at 30 µM: 30 µM APHS
Description: Peripheral blood mononuclear cell (PBMC) fractions are isolated from heparinised blood from HIV-1-, HIV-2- and hepatitis B- seronegative donors (Blood-bank, Utrecht, the Netherlands) by Ficoll-Isopaque gradient separation. Cells are washed twice, stimulated with 4 µg/ml phytohemagglutinin (PHA), and cultured in RPMI-1640 medium supplemented with 5 mM Hepes, 19 mM sodium bicarbonate, 10 µg/ml gentamicin, and 10% heat-inactivated fetal calf serum at a concentration of 1 x 10^6 cells/ml.
HIV-1 strain Ba-L is grown to high titer in MDM. The 50% tissue culture infectious dose (TCID50) of the virus stock is determined by endpoint dilution with serial fourfold dilutions in a 96-well microtiter plate on MDM. HIV-1 strain AT is grown to high titer in PHA-stimulated PBMC. The TCID50 of the virus stock is determined by endpoint dilution with serial fourfold dilutions in a 96-well microtiter plate on PBMC.
MDM, and PBMC, were incubated with HIV at a multiplicity of infection of 0.02, and 0.006 or 0.001, respectively. After two hours cells are washed to remove unbound virus and cultured for 4 to 7 days in different concentrations of the drug under investigation. On day 4, 5 and 7, 0.01 ml of supernatant is removed from the culture and virus in culture supernatant is inactivated in a final concentration of 0.05% empigen (Calbiochem-Novabiochem Co., La Jolla, CA). The presence of HIV-1 in the inactivated supernatant is monitored by checking for the p24-core antigen using the enzyme-linked immunosorbent assay (ELISA) system of John Moore.
(A, B) Peripheral blood mononuclear cells (PBMC) were isolated from heparinized blood from HIV-1-, HIV-2-, and hepatitis B-seronegative donors and obtained on Ficoll-Hypaque density gradients. Cells were washed twice, stimulated with 5 µg/ml phytohemagglutinin (PHA), and cultured m RPMI-1640 medium supplemented with 5 mM Hepes, 19 mM sodium bicarbonate, 10 µg/mL gentamicin, and 10% heat-inactivated fetal calf serum (PBMC culture medium) at a concentration of 2 x 10^6 cells/ml. After 3 days of incubation stimulated PBMC were recovered from the flasks and infected for 2 hours with HIV-1Ba-L at a multiplicity of infection of 0.01. Afterwards, HIV-infected and mock-infected PBMC were washed twice to remove unbound virus. (A) PBMC were cultured at a density of 6 x 10^5 cells/well with different concentrations of APHS and after 5 days of incubation samples of culture supernatant were collected. (B) PBMC were cultured in suspension at a concentration of 2 x 10^6 cells/ml in Teflon flasks in PBMC culture medium. After 5 days of incubation PBMC were recovered from Teflon flasks, washed twice to remove unbound virus and cultured at a density of 6 x 10^5 PBMC / well with different concentrations of APHS. After 2 days of incubation samples of culture supernatant were collected. p24-core antigen production was quantified using the enzyme-linked immunosorbent assay (ELISA) system of John Moore. […] (C, D) PBMC were isolated from heparinized blood from HIV-1-, HIV-2-, and hepatitis B-seronegative donors and obtained on Ficoll-Hypaque density gradients. PBMC were washed twice and monocytes were purified by countercurrent centrifugal elutriation. Cells were >98% monocytes by criteria of cell morphology on May-Grünwald-Giemsa-stained cytosmears and by nonspecific esterase staining using alpha-naphtylacetate as substrate. […]

HIV-1Ba-L [2] = experiment: HIV-1 production by chronically infected PBMC, p24-core antigen ELISA; type: cell-based; conditions: Fig 6B; APHS added 5 days after infection, 2 days of incubation
Description: (A, B) Peripheral blood mononuclear cells (PBMC) were isolated from heparinized blood from HIV-1-, HIV-2-, and hepatitis B-seronegative donors and obtained on Ficoll-Hypaque density gradients. Cells were washed twice, stimulated with 5 µg/ml phytohemagglutinin (PHA), and cultured m RPMI-1640 medium supplemented with 5 mM Hepes, 19 mM sodium bicarbonate, 10 µg/mL gentamicin, and 10% heat-inactivated fetal calf serum (PBMC culture medium) at a concentration of 2 x 10^6 cells/ml. After 3 days of incubation stimulated PBMC were recovered from the flasks and infected for 2 hours with HIV-1Ba-L at a multiplicity of infection of 0.01. Afterwards, HIV-infected and mock-infected PBMC were washed twice to remove unbound virus. […] (B) PBMC were cultured in suspension at a concentration of 2 x 10^6 cells/ml in Teflon flasks in PBMC culture medium. […] After 2 days of incubation samples of culture supernatant were collected. p24-core antigen production was quantified using the enzyme-linked immunosorbent assay (ELISA) system of John Moore. […] (C, D) PBMC were isolated from heparinized blood from HIV-1-, HIV-2-, and hepatitis B-seronegative donors and obtained on Ficoll-Hypaque density gradients. […] After 2 days of incubation samples of culture supernatant were collected. p24-core antigen production was quantified using the enzyme-linked immunosorbent assay (ELISA) system of John Moore. […]

HXB2 = experiment: IC50 of APHS for HIV-1 strains (Table 2), sensitive strain; type: cell-based; conditions: Human immunodeficiency virus 1, HXB2, read-out: IC50 of APHS
HIV-1 = experiment: IC50 determination of an anti-viral (Table 3); type: cell-based; conditions: Human immunodeficiency virus 1
[3] = test system: drug-resistant HIV strains; conditions: Table 2 strains

CCCCC#CCSc1ccccc1OC(C)=O [APHS, o-(acetoxy-phenyl)hept-2-ynyl sulphide]
APHS concentrations that inhibit HIV-1 production (HIV-1Ba-L [1]; Fig 4, PBMC infected with HIV-1AT or HIV-1BaL, 4 and 5 days of incubation): above 1 µM
APHS concentrations that inhibit HIV-1Ba-L replication (HIV-1Ba-L [1]; Fig 6A, acute infection of PBMC, multiplicity of infection 0.01, 5 days of incubation): above 3 µM
inhibition at 30 µM (HIV-1Ba-L [1]; Human immunodeficiency virus 1, 120 h, Fig 6A, acute infection of PBMC, multiplicity of infection 0.01, 5 days): 100%
inhibition at 1 µM (HIV-1Ba-L [1]; Human immunodeficiency virus 1, PBMC, read-out: inhibition of HIV-1BaL production): 50%
inhibition at 30 µM (HIV-1Ba-L [1]; Human immunodeficiency virus 1, Fig 4, PBMC, read-out: inhibition of HIV-1BaL replication): 100%
inhibition of HIV-1 production of chronically infected PBMCs (HIV-1Ba-L [2]): does not inhibit
IC50 (HXB2): 12.6 ± 2.3 µM
IC50 (HIV-1): 10 µM
inhibitory activity against drug resistant strains versus activity against a sensitive strain [3]: two- to four-fold higher
